Experimental data taken from US20260372303A1, “5-Fluoro-4-Imino-3-Methyl-1-Tosyl-3, 4-Dihydropyrimidin-2(1H) -One for Fungicide-Resistant Fungus” (priority 2022, published 2026).

Legend:
[1] = tested on: Zymoseptoria tritici strain Zt 20; test: In planta preventive efficacy on wheat cv. Alixan against Zymoseptoria tritici strain Zt 20; type: in vivo; conditions: % of length of 2nd leaf blade, preventive 24 h
In short: (§1)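 BBCH 12 wheat plants sprayed preventively, inoculated 24 h later with calibrated pycnospore suspension; 3 pots of 6 plants per condition, 20/17 °C, 16 h light. Necrosis length on second leaf scored at 15, 21 and 28 dpi; efficacy from trapezoidal AUDPC as % of untreated control.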

[2] = tested on: Zymoseptoria tritici strain Zt 19-52; test: In planta preventive efficacy on wheat cv. Alixan against Zymoseptoria tritici strain Zt 19-52; type: in vivo; conditions: % of length of 2nd leaf blade, preventive 24 h
[3] = tested on: Zymoseptoria tritici strain Zt StA; test: In planta preventive efficacy on wheat cv. Alixan against Zymoseptoria tritici strain Zt StA (control strain, sensitive); type: in vivo; conditions: for Disease Severity Intensity: % of length of 2nd leaf blade, preventive 24 h; for AUDPC: control 781.6
In short: as §1

[4] = tested on: Zymoseptoria tritici strain Zt 38-02; test: In planta preventive efficacy on wheat cv. Alixan against Zymoseptoria tritici strain Zt 38-02; type: in vivo; conditions: for Disease Severity Intensity: % of length of 2nd leaf blade, preventive 24 h; for AUDPC: control 1261.4
In short: as §1

[5] = tested on: Zymoseptoria tritici strain Zt 99; test: In planta preventive efficacy on wheat cv. Alixan against Zymoseptoria tritici strain Zt 99; type: in vivo; conditions: for Disease Severity Intensity: % of length of 2nd leaf blade, preventive 24 h; for AUDPC: control 1352.9
In short: as §1

[6] = tested on: Zymoseptoria tritici strain Zt 61; test: In planta preventive efficacy on wheat cv. Alixan against Zymoseptoria tritici strain Zt 61; type: in vivo; conditions: for Disease Severity Intensity: % of length of 2nd leaf blade, preventive 24 h; for AUDPC: control 1194.9
In short: as §1

[7] = tested on: Z. tritici strains; test: In planta susceptibility of all Z. tritici strains pathogenic on wheat cv. ALIXAN (conclusions); type: in vivo, Zymoseptoria tritici
Method: Winter wheat plants cv. Alixan (Limagrain) at the BBCH 12 growth stage were treated preventively with sterile distilled water (control), ADF-16, penthiopyrad, metconazole or tebuconazole at the rates described in Table 2 with a hand sprayer at 2 bars.
After treatment, wheat plants were left to dry at room temperature for 1 hour and then placed in a climatic chamber: temperature of 24 °C day/18 °C night-photoperiod of 16 h light/8 h dark and a relative humidity of 65%.
Untreated or treated whole wheat plants were inoculated 24-hours post-treatment with a calibrated pycnospore suspension of Z. tritici strains Zt StA, Zt 61, Zt 99, Zt 20, Zt 19-52, and Zt 38-02. Three replicates (pots) of 6 wheat plants each were used for each condition tested. […]
Disease assessments were carried out at 15 days post inoculation (dpi), 21 dpi and 28 dpi by measuring the length of the necrosis on the second leaf blade. The intensity of infection was then determined as a percentage of the total length of 2nd leaf blade.
The fungicide efficacies were determined from the Area Under the Disease Progress Curve (AUDPC) values and expressed as a percentage of the untreated control.
The AUDPC is a quantitative measure of disease intensity over time. […] The AUDPC is determined with the following formula by adding all of the trapezoids: […]

[8] = 15 dpi, rate N (g a.i./ha): ADF-16 100, penthiopyrad 200, metconazole 90, tebuconazole 250, control also no disease
[9] = 15 dpi, rate N/2.5 (g a.i./ha): ADF-16 40, penthiopyrad 80, metconazole 36, tebuconazole 100, control also no disease
[10] = rate N (g a.i./ha): ADF-16 100, penthiopyrad 200, metconazole 90, tebuconazole 250
[11] = rate N/2.5 (g a.i./ha): ADF-16 40, penthiopyrad 80, metconazole 36, tebuconazole 100

## Cc1ccc(S(=O)(=O)n2cc(F)c(=N)n(C)c2=O)cc1 [ADF-16, 5-fluoro-4-imino-3-methyl-1-tosyl-3,4-dihydropyrimidin-2 (1H)-one]
[1]; [8]
  Disease Severity Intensity: No disease
[1]; [9]
  Disease Severity Intensity: No disease
[1]; 21 dpi, rate N (g a.i./ha): ADF-16 100, penthiopyrad 200, metconazole 90, tebuconazole 250, control 77.2
  Disease Severity Intensity: 0.0 +/− 0.0e %
[1]; 21 dpi, rate N/2.5 (g a.i./ha): ADF-16 40, penthiopyrad 80, metconazole 36, tebuconazole 100, control 77.2
  Disease Severity Intensity: 0.0 +/− 0.0e %
[1]; 28 dpi, rate N (g a.i./ha): ADF-16 100, penthiopyrad 200, metconazole 90, tebuconazole 250, control 95.5
  Disease Severity Intensity: 0.0 +/− 0.0g %
[1]; 28 dpi, rate N/2.5 (g a.i./ha): ADF-16 40, penthiopyrad 80, metconazole 36, tebuconazole 100, control 95.5
  Disease Severity Intensity: 7.3 +/− 1.9f %
[2]; 15 dpi, rate N (g a.i./ha): ADF-16 100, penthiopyrad 200, metconazole 90, tebuconazole 250, control 22.0
  Disease Severity Intensity: 0.0 +/− 0.0b %
[2]; 15 dpi, rate N/2.5 (g a.i./ha): ADF-16 40, penthiopyrad 80, metconazole 36, tebuconazole 100, control 22.0
  Disease Severity Intensity: 0.0 +/− 0.0b %
[2]; 21 dpi, rate N (g a.i./ha): ADF-16 100, penthiopyrad 200, metconazole 90, tebuconazole 250, control 81.7
  Disease Severity Intensity: 0.4 +/− 0.4c %
[2]; 21 dpi, rate N/2.5 (g a.i./ha): ADF-16 40, penthiopyrad 80, metconazole 36, tebuconazole 100, control 81.7
  Disease Severity Intensity: 0.3 +/− 0.2c %
[2]; 28 dpi, rate N (g a.i./ha): ADF-16 100, penthiopyrad 200, metconazole 90, tebuconazole 250, control 91.0
  Disease Severity Intensity: 2.0 +/− 1.4ef %
[2]; 28 dpi, rate N/2.5 (g a.i./ha): ADF-16 40, penthiopyrad 80, metconazole 36, tebuconazole 100, control 91.0
  Disease Severity Intensity: 4.4 +/− 1.7de %
[3]; [8]
  Disease Severity Intensity: No disease
[3]; [9]
  Disease Severity Intensity: No disease
[3]; 21 dpi, rate N (g a.i./ha): ADF-16 100, penthiopyrad 200, metconazole 90, tebuconazole 250, control 36.5
  Disease Severity Intensity: 0.0 +/− 0.0b %
[3]; 21 dpi, rate N/2.5 (g a.i./ha): ADF-16 40, penthiopyrad 80, metconazole 36, tebuconazole 100, control 36.5
  Disease Severity Intensity: 0.0 +/− 0.0b %
[3]; 28 dpi, rate N (g a.i./ha): ADF-16 100, penthiopyrad 200, metconazole 90, tebuconazole 250, control 77.4
  Disease Severity Intensity: 0.0 +/− 0.0b %
[3]; 28 dpi, rate N/2.5 (g a.i./ha): ADF-16 40, penthiopyrad 80, metconazole 36, tebuconazole 100, control 77.4
  Disease Severity Intensity: 0.0 +/− 0.0b %
[3]; [10]
  Efficacy (from AUDPC, percentage of the untreated control): 100%
  AUDPC: 0.0 +/− 0.0b
[3]; [11]
  Efficacy (from AUDPC, percentage of the untreated control): 100%
  AUDPC: 0.0 +/− 0.0b
[4]; 15 dpi, rate N (g a.i./ha): ADF-16 100, penthiopyrad 200, metconazole 90, tebuconazole 250, control 36.0
  Disease Severity Intensity: 0.0 +/− 0.0b %
[4]; 15 dpi, rate N/2.5 (g a.i./ha): ADF-16 40, penthiopyrad 80, metconazole 36, tebuconazole 100, control 36.0
  Disease Severity Intensity: 0.0 +/− 0.0b %
[4]; 21 dpi, rate N (g a.i./ha): ADF-16 100, penthiopyrad 200, metconazole 90, tebuconazole 250, control 84.3
  Disease Severity Intensity: 0.0 +/− 0.0f^ %
[4]; 21 dpi, rate N/2.5 (g a.i./ha): ADF-16 40, penthiopyrad 80, metconazole 36, tebuconazole 100, control 84.3
  Disease Severity Intensity: 0.0 +/− 0.0f^ %
[4]; 28 dpi, rate N (g a.i./ha): ADF-16 100, penthiopyrad 200, metconazole 90, tebuconazole 250, control 95.7
  Disease Severity Intensity: 0.4 +/− 0.4e %
[4]; 28 dpi, rate N/2.5 (g a.i./ha): ADF-16 40, penthiopyrad 80, metconazole 36, tebuconazole 100, control 95.7
  Disease Severity Intensity: 0.0 +/− 0.0e %
[4]; [10]
  Efficacy (from AUDPC, percentage of the untreated control): 99.9%
  AUDPC: 1.3 +/− 0.9e
[4]; [11]
  Efficacy (from AUDPC, percentage of the untreated control): 100%
  AUDPC: 0.0 +/− 0.0e
[5]; 15 dpi, rate N (g a.i./ha): ADF-16 100, penthiopyrad 200, metconazole 90, tebuconazole 250, control 47.9
  Disease Severity Intensity: 0.0 +/− 0.0d %
[5]; 15 dpi, rate N/2.5 (g a.i./ha): ADF-16 40, penthiopyrad 80, metconazole 36, tebuconazole 100, control 47.9
  Disease Severity Intensity: 0.0 +/− 0.0d %
[5]; 21 dpi, rate N (g a.i./ha): ADF-16 100, penthiopyrad 200, metconazole 90, tebuconazole 250, control 81.0
  Disease Severity Intensity: 0.1 +/− 0.1f %
[5]; 21 dpi, rate N/2.5 (g a.i./ha): ADF-16 40, penthiopyrad 80, metconazole 36, tebuconazole 100, control 81.0
  Disease Severity Intensity: 0.0 +/− 0.0f %
[5]; 28 dpi, rate N (g a.i./ha): ADF-16 100, penthiopyrad 200, metconazole 90, tebuconazole 250, control 92.2
  Disease Severity Intensity: 0.1 +/− 0.1e %
[5]; 28 dpi, rate N/2.5 (g a.i./ha): ADF-16 40, penthiopyrad 80, metconazole 36, tebuconazole 100, control 92.2
  Disease Severity Intensity: 1.7 +/− 0.8e %
[5]; [10]
  Efficacy (from AUDPC, percentage of the untreated control): 99.9%
  AUDPC: 1.2 ± 0.3 g
[5]; [11]
  Efficacy (from AUDPC, percentage of the untreated control): 99.6%
  AUDPC: 5.9 ± 0.4 g
[6]; [8]
  Disease Severity Intensity: No disease
[6]; [9]
  Disease Severity Intensity: No disease
[6]; 21 dpi, rate N (g a.i./ha): ADF-16 100, penthiopyrad 200, metconazole 90, tebuconazole 250, control 63.3
  Disease Severity Intensity: 0.0 +/− 0.0d %
[6]; 21 dpi, rate N/2.5 (g a.i./ha): ADF-16 40, penthiopyrad 80, metconazole 36, tebuconazole 100, control 63.3
  Disease Severity Intensity: 3.2 +/− 1.1d %
[6]; 28 dpi, rate N (g a.i./ha): ADF-16 100, penthiopyrad 200, metconazole 90, tebuconazole 250, control 88.1
  Disease Severity Intensity: 1.5 +/− 0.3g %
[6]; 28 dpi, rate N/2.5 (g a.i./ha): ADF-16 40, penthiopyrad 80, metconazole 36, tebuconazole 100, control 88.1
  Disease Severity Intensity: 14.8 +/− 4.0e %
[6]; [10]
  Efficacy (from AUDPC, percentage of the untreated control): 99.6%
  AUDPC: 5.4 ± 1.2 days
[6]; [11]
  Efficacy (from AUDPC, percentage of the untreated control): 91.9%
  AUDPC: 97.2 ± 5.0 days
[7]; 8 strains pathogenic on wheat cv. ALIXAN, 2 doses tested (40 and 100 g a.i./ha)
  control in planta of Z. tritici strains: perfectly controlled
[7]; full dose of 100 g a.i./ha, across strains
  effectiveness: more than 99%
